Reference: the supplement of paper PMC10331698
± gives the standard deviation of the averaged measurements.

What was measured:
Assay in all cases: level (log10 ratio to DMSO vehicle control); higher = higher biomarker level / cell amount than vehicle control
[1] = compound: NC(=O)C(F)(F)C(F)(F)C(F)(F)C(F)(F)C(N)=O [Octafluoroadipamide]; details: in DMSO
Description: (§1)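 BioMAP Diversity Plus panel of 12 human primary cell co-culture systems (3C, 4H, LPS, SAg, BT, BF4T, BE3C, CASM3C, HDF3CGF, KF3CT, MyoF, Mphg). Compounds were added 1 h before stimulation and left for 24 h (MyoF 48 h; BT 72 h for soluble read-outs or 6 d for IgG). Biomarkers were read by ELISA, cytotoxicity by SRB, PBMC viability and proliferation by Alamar Blue. Each well value was divided by the mean of 8 DMSO control wells on the same plate and log10 transformed; duplicate blinded samples were tested at 4 concentrations.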

[2] = compound: FC(F)(F)C(F)(F)C(F)(F)C(F)(F)C(F)(F)C(F)(F)CC1CO1 [3-(Perfluorohexyl)-1,2-epoxypropane]; details: in DMSO
Description: as §1

[3] = compound: O=C(O)C(F)(F)C(F)(F)C(F)(F)C(F)(F)C(F)(F)C(F)(F)C(F)(F)C(F)(F)C(F)(F)C(F)F [11-H-Perfluoroundecanoic acid]; details: in DMSO
Description: as §1

[4] = compound: O=S(=O)(Cl)C(F)(F)C(F)(F)C(F)(F)C(F)(F)C(F)(F)C(F)(F)C(F)(F)C(F)(F)F [Perfluoro-1-octanesulfonyl chloride]; details: in DMSO
Description: as §1

[5] = compound: NC(=O)C(F)(F)C(F)(F)C(F)(F)C(F)F; details: in DMSO
Description: as §1

[6] = compound: FC(F)(F)C(F)(F)C(F)(F)C(F)(F)C(F)(F)C(F)(F)C(F)(F)I [1-Iodopentadecafluoroheptane]; details: in DMSO
Description: as §1

[7] = compound: NS(=O)(=O)C(F)(F)C(F)(F)C(F)(F)C(F)(F)C(F)(F)C(F)(F)F [Perfluorohexanesulfonamide]; details: in DMSO
Description: as §1

[8] = compound: C=CC(=O)OCC(F)(F)C(F)(F)C(F)(F)COC(=O)C=C [1H,1H,5H,5H-Perfluoro-1,5-pentanediol diacrylate]; details: 6700 nM; in DMSO
Description: as §1

[9] = compound: FC(F)(F)C(F)(F)C(F)(F)CC1CO1 [1H,1H-Heptafluorobutyl epoxide]; details: in DMSO
Description: as §1

[10] = compound: C=C(C)C(=O)OCCC(F)(F)C(F)(F)C(F)(F)C(F)(F)C(F)(F)C(F)(F)F [6:2 Fluorotelomer methacrylate]; details: in DMSO
Description: as §1

[11] = compound: O=S(=O)(O)C(F)(F)C(F)(F)C(F)(F)C(F)(F)C(F)(F)C(F)(F)C(F)(F)C(F)(F)C(F)(F)C(F)(F)F [Sodium perfluorodecanesulfonate]; details: in DMSO
Description: as §1

[12] = compound: COC(=O)C(F)(F)C(F)(F)OC(F)(C(F)(F)F)C(F)(F)OC(F)=C(F)F [Methyl perfluoro(3-(1-ethenyloxypropan-2-yloxy)propanoate)]; details: in DMSO
Description: as §1

[13] = compound: FC(F)(F)C(F)(F)C(F)(F)CI [Heptafluorobutyl iodide]; details: in DMSO
Description: as §1

[14] = compound: OCC(F)(F)C(F)(F)C(F)(F)CO [Hexafluoroamylene glycol]; details: in DMSO
Description: as §1

[15] = compound: O=S(=O)(F)C(F)(F)C(F)(F)C(F)(F)C(F)(F)C(F)(F)C(F)(F)C(F)(F)C(F)(F)F [Perfluorooctanesulfonyl fluoride]; details: in DMSO
Description: as §1

[16] = compound: O=C(O)C=CC(F)(C(F)(F)F)C(F)(F)F [3-(Perfluoroisopropyl)-2-propenoic acid]; details: in DMSO
Description: as §1

[17] = compound: FC(F)(F)C(F)(F)CNCC(F)(F)C(F)(F)F [Bis(1H,1H-perfluoropropyl)amine]; details: in DMSO
Description: as §1

[18] = compound: NC(=O)C(F)(F)C(F)(F)C(F)(F)C(F)(F)F [Nonafluoropentanamide]; details: in DMSO
Description: as §1

[19] = compound: O=S(=O)(O)CCC(F)(F)C(F)(F)C(F)(F)C(F)(F)C(F)(F)C(F)(F)F [6:2 Fluorotelomer sulfonic acid]; details: in DMSO
Description: as §1

For CASM3C:Serum Amyloid A, the “level (log10)” value ([1]; 6700 nM) was 0.012 ± 0.014, the “level (log10)” value ([1]; 20000 nM) was 0.0085 ± 0.0092 and the “level (log10)” value ([1]; 60000 nM) was 0.0185 ± 0.028. The “level (log10)” value ([2]; 6700 nM) was -0.0115 ± 0.042, the “level (log10)” value ([2]; 20000 nM) was -0.012 ± 0.013 and the “level (log10)” value ([2]; 60000 nM) was 0.031 ± 0.023. The “level (log10)” value ([3]; 6700 nM) was 0.0155 ± 0.00071, the “level (log10)” value ([3]; 20000 nM) was 0.0205 ± 0.036 and the “level (log10)” value ([4]; 6700 nM) was -0.008 ± 0.011. The “level (log10)” value ([4]; 20000 nM) was -0.0165 ± 0.005, the “level (log10)” value ([4]; 60000 nM) was 0.016 ± 0.025 and the “level (log10)” value ([5]; 6700 nM) was -0.054 ± 0.071. The “level (log10)” value ([5]; 20000 nM) was -0.0535 ± 0.026, the “level (log10)” value ([5]; 60000 nM) was -0.003 ± 0.024 and the “level (log10)” value ([6]; 6700 nM) was -0.035. The “level (log10)” value ([6]; 20000 nM) was 0.008 ± 0.024, the “level (log10)” value ([7]; 6700 nM) was -0.0055 ± 0.039 and the “level (log10)” value ([7]; 20000 nM) was 0.012 ± 0.018. For the same test system, the “level (log10)” value ([7]; 60000 nM) was 0.0625 ± 0.018, the “level (log10)” value [8] was -0.038 ± 0.0057 and the “level (log10)” value ([9]; 6700 nM) was 0.0025 ± 0.012. For the same test system, the “level (log10)” value ([9]; 20000 nM) was 0.003 ± 0.035, the “level (log10)” value ([9]; 60000 nM) was 0.032 ± 0.061 and the “level (log10)” value ([10]; 6700 nM) was -0.032 ± 0.023. The “level (log10)” value ([10]; 20000 nM) was -0.051 ± 0.02, the “level (log10)” value ([10]; 60000 nM) was -0.0425 ± 0.023 and the “level (log10)” value ([11]; 1500 nM) was -0.0545 ± 0.022. For the same test system, the “level (log10)” value ([11]; 4400 nM) was -0.0135 ± 0.011, the “level (log10)” value ([11]; 13000 nM) was 0.0365 ± 0.036 and the “level (log10)” value ([11]; 40000 nM) was 0.182 ± 0.028. For the same test system, the “level (log10)” value ([12]; 6700 nM) was 0.007 ± 0.011, the “level (log10)” value ([12]; 20000 nM) was 0.009 ± 0.023 and the “level (log10)” value ([13]; 6700 nM) was -0.027 ± 0.0014. For the same test system, the “level (log10)” value ([13]; 20000 nM) was 0.0075 ± 0.0021, the “level (log10)” value ([13]; 60000 nM) was 0.0035 ± 0.012 and the “level (log10)” value ([14]; 6700 nM) was 0.016 ± 0.014. For the same test system, the “level (log10)” value ([14]; 20000 nM) was -0.0055 ± 0.069, the “level (log10)” value ([14]; 60000 nM) was 0.002 ± 0.0014 and the “level (log10)” value ([15]; 6700 nM) was 0.0225 ± 0.0092. For the same test system, the “level (log10)” value ([15]; 20000 nM) was 0.0245 ± 0.0078, the “level (log10)” value ([15]; 60000 nM) was 0.0185 ± 0.011 and the “level (log10)” value ([16]; 6700 nM) was 0.0085 ± 0.005. The “level (log10)” value ([16]; 20000 nM) was -0.023 ± 0.017, the “level (log10)” value ([16]; 60000 nM) was 0.026 ± 0.045 and the “level (log10)” value ([17]; 6700 nM) was 0.0025 ± 0.019. For the same test system, the “level (log10)” value ([17]; 20000 nM) was -0.007 ± 0.0057, the “level (log10)” value ([17]; 60000 nM) was 0.0065 ± 0.032 and the “level (log10)” value ([18]; 6700 nM) was -0.016 ± 0.018. For the same test system, the “level (log10)” value ([18]; 20000 nM) was -0.018 ± 0.0057, the “level (log10)” value ([18]; 60000 nM) was 0.008 ± 0.013 and the “level (log10)” value ([19]; 6700 nM) was 0.019 ± 0.014. The “level (log10)” value ([19]; 20000 nM) was 0.021 ± 0.03 and the “level (log10)” value ([19]; 60000 nM) was 0.017 ± 0.031.

HDF3CGF:MMP-1 was tested, and the “level (log10)” value ([1]; 6700 nM) was 0.0035 ± 0.005, the “level (log10)” value ([1]; 20000 nM) was 0.002 ± 0.011 and the “level (log10)” value ([1]; 60000 nM) was 0.0045 ± 0.012. The “level (log10)” value ([2]; 6700 nM) was 0.0005 ± 0.0021, the “level (log10)” value ([2]; 20000 nM) was 0.004 ± 0.0042 and the “level (log10)” value ([2]; 60000 nM) was 0.003 ± 0.0071. For the same test system, the “level (log10)” value ([3]; 6700 nM) was -0.096 ± 0.034, the “level (log10)” value ([3]; 20000 nM) was -0.0815 ± 0.005 and the “level (log10)” value ([4]; 6700 nM) was -0.0435 ± 0.019. The “level (log10)” value ([4]; 20000 nM) was -0.017 ± 0.0099, the “level (log10)” value ([4]; 60000 nM) was 0.016 ± 0.028 and the “level (log10)” value ([5]; 6700 nM) was 0.0005 ± 0.00071. The “level (log10)” value ([5]; 20000 nM) was -0.006 ± 0.0042, the “level (log10)” value ([5]; 60000 nM) was 0.003 ± 0.0071 and the “level (log10)” value ([6]; 6700 nM) was -0.0105 ± 0.0021. The “level (log10)” value ([6]; 20000 nM) was -0.0285 ± 0.018, the “level (log10)” value ([7]; 6700 nM) was 0.0145 ± 0.0064 and the “level (log10)” value ([7]; 20000 nM) was 0.0155 ± 0.0035. The “level (log10)” value ([7]; 60000 nM) was -0.0185 ± 0.028, the “level (log10)” value [8] was -0.3945 ± 0.00071 and the “level (log10)” value ([9]; 6700 nM) was 0.0265 ± 0.012. The “level (log10)” value ([9]; 20000 nM) was 0.028 ± 0.0099, the “level (log10)” value ([9]; 60000 nM) was 0.0355 ± 0.0035 and the “level (log10)” value ([10]; 6700 nM) was 0.023 ± 0.0085. For the same test system, the “level (log10)” value ([10]; 20000 nM) was 0.031 ± 0.0028, the “level (log10)” value ([10]; 60000 nM) was 0.039 ± 0.0057 and the “level (log10)” value ([11]; 1500 nM) was -0.0125 ± 0.0092. The “level (log10)” value ([11]; 4400 nM) was -0.0145 ± 0.0078, the “level (log10)” value ([11]; 13000 nM) was -0.007 ± 0.024 and the “level (log10)” value ([11]; 40000 nM) was 0.027 ± 0.024. The “level (log10)” value ([12]; 6700 nM) was 0.0115 ± 0.011, the “level (log10)” value ([12]; 20000 nM) was 0.02 ± 0.033 and the “level (log10)” value ([13]; 6700 nM) was -0.014 ± 0.028. The “level (log10)” value ([13]; 20000 nM) was -0.0195 ± 0.021, the “level (log10)” value ([13]; 60000 nM) was -0.0255 ± 0.025 and the “level (log10)” value ([14]; 6700 nM) was 0.004 ± 0.0071. For the same test system, the “level (log10)” value ([14]; 20000 nM) was -0.0015 ± 0.04, the “level (log10)” value ([14]; 60000 nM) was -0.022 ± 0.064 and the “level (log10)” value ([15]; 6700 nM) was 0.023 ± 0.03. For the same test system, the “level (log10)” value ([15]; 20000 nM) was 0.029 ± 0.024, the “level (log10)” value ([15]; 60000 nM) was 0.006 ± 0.051 and the “level (log10)” value ([16]; 6700 nM) was 0.0005 ± 0.012. The “level (log10)” value ([16]; 20000 nM) was 0.008 ± 0.011, the “level (log10)” value ([16]; 60000 nM) was 0.0005 ± 0.0064 and the “level (log10)” value ([17]; 6700 nM) was 0.001 ± 0.0028. For the same test system, the “level (log10)” value ([17]; 20000 nM) was -0.0145 ± 0.0092, the “level (log10)” value ([17]; 60000 nM) was 0.0075 ± 0.0092 and the “level (log10)” value ([18]; 6700 nM) was 0.0065 ± 0.0092. For the same test system, the “level (log10)” value ([18]; 20000 nM) was 0.011 ± 0.0085, the “level (log10)” value ([18]; 60000 nM) was 0.0085 ± 0.012 and the “level (log10)” value ([19]; 6700 nM) was -0.015 ± 0.027. The “level (log10)” value ([19]; 20000 nM) was -0.039 ± 0.03 and the “level (log10)” value ([19]; 60000 nM) was -0.036 ± 0.064.
